This is an account of results in ChEMBL document CHEMBL1131762, “Synthesis and identification of conformationally constrained selective MMP inhibitors” (Bioorg Med Chem Lett, 1999).

Each structure is given as a SMILES string. pIC50: −log10 of the molar value. A value given as a limit tells only on which side of the number the result lay.

Experiment [1] addresses T1, Interstitial collagenase (Homo sapiens, UniProt P03956).
T1 sequence (P03956 whole entry): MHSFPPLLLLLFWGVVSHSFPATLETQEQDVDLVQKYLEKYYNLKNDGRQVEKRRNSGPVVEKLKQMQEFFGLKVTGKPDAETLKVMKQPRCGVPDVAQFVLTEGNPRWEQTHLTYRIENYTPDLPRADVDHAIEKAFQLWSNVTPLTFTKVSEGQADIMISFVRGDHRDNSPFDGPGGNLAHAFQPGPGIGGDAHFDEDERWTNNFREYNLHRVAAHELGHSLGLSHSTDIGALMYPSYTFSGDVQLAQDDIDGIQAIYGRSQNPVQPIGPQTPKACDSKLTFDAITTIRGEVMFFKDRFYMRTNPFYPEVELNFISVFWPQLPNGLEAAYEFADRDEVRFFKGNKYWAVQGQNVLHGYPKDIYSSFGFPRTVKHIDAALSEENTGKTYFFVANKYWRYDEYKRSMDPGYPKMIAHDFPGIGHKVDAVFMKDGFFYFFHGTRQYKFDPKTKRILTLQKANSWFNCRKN
In words: Inhibition of human recombinant matrix metalloprotease-1 (hMMP-1).

The target of experiment [2] is Neutrophil collagenase (Homo sapiens, UniProt P22894). Briefly: Inhibition of human recombinant matrix metalloprotease-8 (hMMP-8).
The target of experiment [3] is Collagenase 3 (Homo sapiens, UniProt P45452). In words: Inhibition of human recombinant matrix metalloprotease-13 (hMMP-13).

Usually pIC50 stands for −log10 of the IC50, conventionally taken in molar units.

Sequence of Neutrophil collagenase (P22894 whole entry): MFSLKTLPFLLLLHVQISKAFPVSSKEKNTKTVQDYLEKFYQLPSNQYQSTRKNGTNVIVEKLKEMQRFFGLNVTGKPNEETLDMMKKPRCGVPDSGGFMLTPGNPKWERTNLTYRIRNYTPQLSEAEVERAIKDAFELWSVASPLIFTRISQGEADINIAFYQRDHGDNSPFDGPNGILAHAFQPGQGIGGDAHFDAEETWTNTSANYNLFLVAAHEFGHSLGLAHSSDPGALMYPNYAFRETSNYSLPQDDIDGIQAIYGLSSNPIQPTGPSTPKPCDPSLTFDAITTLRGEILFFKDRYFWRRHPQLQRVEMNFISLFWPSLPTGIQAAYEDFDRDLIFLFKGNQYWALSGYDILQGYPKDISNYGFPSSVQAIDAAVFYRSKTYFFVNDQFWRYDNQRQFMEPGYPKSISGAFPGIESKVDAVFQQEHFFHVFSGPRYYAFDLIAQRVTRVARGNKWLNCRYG

Turning to `COc1ccc(S(=O)(=O)C2CCCC(S)C2)cc1` (centres undefined), the pIC50 in experiment [1] is 6.00; in experiment [2], 6.23.

For the compound `COc1ccc(S(=O)(=O)C2CCC(S)C2)cc1` (centres undefined), in experiment [1], the negative-log IC50 (pIC50) was below 5.00.

For `O=S(=O)(c1ccc(Sc2ccccc2)cc1)C1CCCC(S)C1` (centres undefined), the negative-log IC50 (pIC50) in experiment [1] was below 5.00; in experiment [2], 7.30.

Take `COc1ccc(S(=O)(=O)CCCS)cc1`: the negative-log IC50 (pIC50) in experiment [2] was 5.96.

On to `O=S(=O)(c1ccc(Oc2ccccc2)cc1)C1CCCC(S)C1` (centres undefined), for which the pIC50 in experiment [3] is 9.00; in experiment [1], 5.77; in experiment [2], 8.10.
